Entries after “also recorded” stand apart in the source; their conditions may differ.
Columns and labels:
[1] = system: C57BL/6N mice; assay: Chronic social defeat stress model, forced swim test; assay type: in vivo, mouse; conditions: stressed mice, 10 mg/kg i.p. every second day of stress protocol; 10 mg/kg
Protocol: (§1) The forced swim paradigm was carried out between 1 pm and 4 pm in a 3-litre glass beaker half-filled with water at 22-23° C. (the water depth was 17 cm). All mice were tested only once in this task. To this end, each mouse was lowered gently into the water and the time of immobility was scored during a 6-minute testing period. The mouse was judged immobile when it floated in an upright position and made only small movements to keep its head above the water. After 6 min, the mouse was taken out of the water, left to dry under a red light lamp and returned to its home cage. The immobility scores of each animal were used as an index of despair behavior.
(§2) Social defeat stress procedure was a modified version of the protocol previously described (Berton, McClung et al. 2006). C57BL/6N mice were defeated chronically for 10 consecutive days. Every day they were exposed to the physical contact with an unfamiliar CD1 aggressor in its home cage for maximal interaction time of 5 minutes. After each session of physical stress, C57BL/6N and CD1 mice were separated by a perforated wall and maintained in sensory contact for 24 h. After the last session of stress, mice were transferred into new cages and housed separately throughout the behavioral tests period. C57BL/6N control mice, similarly to the experimental animals, were housed two per cage separated by a metal perforated wall. Every day, they were exposed to the physical contact for 5 minutes.
(§3) For behavioral analysis, 9CDHROL and 9CDHBC were dissolved in ethanol, and then mixed with sunflower oil, so that the final solution contained 3% ethanol. Vehicle treatments consisted of 3% ethanol solution in sunflower oil. For memory studies treatments with 9CDHRA were administered by intraperitoneal injections at volume/weight ratio 3 ml/kg at 7 am and 7 hours before the beginning of testing. For tests with animal model of chronic social defeat, different treatments were administered by intraperitoneal injections at volume/weight ratio 3 ml/kg at 10 mg/kg for each substance between 5-6 pm every second day of stress protocol immediately after the stress session starting from day 1 of the stress protocol.
as §1, with “paradigm (Dalvi and Lucki, 1999)” for “paradigm”, “2-litre” for “3-litre”
as §2, with “(Berton” for “(Berton, McClung”, “C57BL/6N control mice, similarly to the experimental animals, were housed two per cage separated by a metal perforated wall. Every day, they were exposed to the physical contact for 5 minutes.” left out

[2] = system: oligodendrocytes cell line 158N; assay: Metabolic conversion in mouse oligodendrocytes cell culture (LC-MS); assay type: in vitro ADME
Protocol: Normal immortalized oligodendrocytes cell line 158N was cultured as previously reported (Feutz et al., 2001). Expediently, cells were cultured in supplemented with 5% calf serum (Invitrogen, France). When cells attained 70% of confluency they were treated with 10^−2 M ethanol solution of one of the following compounds: 9CDHROL, 9CDHROL-acetate, 9CDHRA-ethyl ester. 9CDHRA and ethanol as controls, vehicle treatment. 18 h after treatment cells were collected in amber Eppendorf tubes and stored at −80° C. until analyses. Treatments and cell collection were carried out in light limited conditions to avoid photolysis of retinoids.
(§4) In a slight variant of the method, after reaching confluency of 80% cells were treated with 9CDHROL, 9CDH-retinyl ester (acetate, 9CDHROL-ES), 9CDHRA, 9CDH-retinoyl ester, (ethyl ester, 9CDHRA-ES), ATROL, 9CDHBC, 9CBC and ATBC at a concentration of 10^−6 M or ethanol at corresponding concentration was used as control vehicle treatment. Cells were harvested 18 hours later, centrifuged, weighted, frozen in liquid nitrogen and stored at −80° C. until analyses.
(§5) High performance liquid chromatography mass spectrometry (LC-MS) was carried out as described in Example 4.

[3] = Mouse oral supplementation, retinoid levels in serum, brain and liver (LC-MS); assay type: in vivo; conditions: mice
Protocol: For metabolic analyses ATROL, 9CDHROL, 9CDHBC and control solutions were prepared as described above. Single per os application of the dose of 40 mg/kg of each substance was used to treat mice in the evening and samples were collected 11 h later in the light protected conditions, weighted, frozen in liquid nitrogen and stored at −80° C. until analyses. Serum was prepared and immediately stored in brown vials at −80° C., till further analysis.
Accordingly, for sample preparation 100 mg of the material (if samples were under 100 mg, water was added up to the used standard weight: 100 mg) or 100 μl serum was diluted with a threefold volume of isopropanol, the tissues were minced by scissors, vortexed for 10 seconds, put in a ultrasonic bath for 5 minutes, shaken for 6 minutes and centrifuged at 13000 rpm in a Heraeus BIOFUGE Fresco at +4° C. […] The dried extracts were resuspended with 30 μl of methanol—MTBE (50-50) and transferred into the autosampler and 10 μl subsequently analysed.
Mouse brain samples were prepared according to the procedure described above. Briefly, after single per os application of the dose of 40 mg/kg of 9CDHROL (or other cited substances) in the evening mice were sacrificed after 11 hours and tissues samples including brain were dissected under light-protection conditions, weighted, frozen in liquid nitrogen and stored at −80° C. until analyses. Serum was prepared and immediately stored in brown vials at −80° C., till further analysis.
For mouse supplementation experiments we treated n=6 mice per os with 40 mg/kg bw 9CDHROL and 11 h after the treatment the mice were killed and blood, brain and liver was taken. After centrifugation of the drawn blood, serum was obtained.

[4] = system: C57BL/6N mice; assay: Chronic social defeat stress model, sucrose preference test; assay type: in vivo, mouse; conditions: stressed mice, 10 mg/kg i.p. every second day of stress protocol; 10 mg/kg
Text: This task, designed to measure hedonic behaviors in mice is based on the palatable nature of sucrose observed in a number of mouse strains. On the first day of the test, sucrose-naive mice were placed in individual cages at 11 am and left there with water and food for habituation period. At 5 pm one water bottle was replaced with two bottles: one containing water and another 0.8% sucrose solution. Three hours later (8 pm) the bottles were weighed to measure liquid consumption and were replaced in cages until morning. The measures of an overnight consumption were then carried out for additional day to evaluate sucrose preference. Mice were not water deprived at any moment, in order to measure spontaneous sucrose preference and exclude any potential emotional confounds induced by stress of water deprivation. The sucrose preference was expressed as the percent of sucrose solution consumed with respect to total liquid consumption.
as §2
as §3, with “by intraperitoneal injections at volume/weight ratio 3 ml/kg at 10 mg/kg for each substance between 5-6 pm every second” left out
This task, designed to measure hedonic behavior in mice (Moreau, 1997), is based on the palatable nature of sucrose observed in a number of mouse strains. On the first day of the test, sucrose-naive mice were placed in individual cages at 11 am and left there with water and food for habituation period. At 5 pm one water bottle was replaced with two bottles: one containing water and another 0.8% sucrose solution. Three hours later (8 pm) the bottles were weighed to measure liquid consumption and were replaced in cages until morning. The measures of an overnight consumption were then carried out for additional day to evaluate sucrose preference. Mice were not water deprived at any moment, in order to measure spontaneous sucrose preference and exclude any potential emotional confounds induced by stress of water deprivation. The sucrose preference was expressed as the percent of sucrose solution consumed with respect to total liquid consumption.
Social defeat stress procedure was a modified version of the protocol previously described (Berton et al. 2006). C57BL/6N mice were defeated chronically for 10 consecutive days. […]

[5] = after column chromatography
[6] = system: human oligodendrocytes cell cultures; assay: Metabolic conversion in human oligodendrocytes cell culture (HPLC-MS); assay type: in vitro ADME
Protocol: as §4, §5
9CDHRA levels including standard deviation in human oligodendrocytes cultures were assessed using HPLC-MS analysis after control treatment using ethanol (CTRL), as well as ATROL treatment (ATROL), 9CBC treatments (9CBC), ATBC treatments (ATBC), 9CDHBC treatment (9CDHBC), 9CDHROL treatments (9CDHROL), 9CDHROL-ester treatments (9CDHROL-ES), 9CDHRA treatments (9CDHRA) or 9CDHRA-ester treatments (9CDHRA-ES), each with 10^−6M concentration and n=3 (FIG. 14D).

[7] = per os 40 mg/kg, 11 h after treatment

CC1=C(/C=C/C(C)=C\C=C\[C@H](C)C/C=C/C=C(C)/C=C/C=C(C)/C=C/C2=C(C)CCCC2(C)C)C(C)(C)CCC1 (stereo in doubt) [9CDHBC, (R)-9-cis-13,14-Dihydro-β,β-carotene]
immobility time in the forced swim test [1]: decreased such immobility; also recorded: efficiently normalised immobility time | ATROL levels in cells after treatment ([2]; 10^−6M): a low conversion or induced increase | 9CDHROL levels in cells after treatment ([2]; 10^−6 M, 18 hours): increases; also recorded: moderately | 9CBC in cells after treatment ([2]; 411 nm detection, retention time 26.1 min): no 9CBC could be detected | 9CDHBC peak in cells after treatment ([2]; UV detection at 366 nm, retention time 25.1 min): even higher peak was conclusively detected | conversion to 9CDHRA ([2]; data not shown): not converted to 9CDHRA | ATROL levels in mouse organs after treatment ([3]; oral gavage 40 mg/kg): no metabolic conversion | 9CDHRA levels in serum, brain and liver after treatment (conversion to 9CDHRA) [3, 7]: moderate but significant increase | 9CDHROL levels in serum, brain and liver after treatment [3, 7]: did not increase | sucrose preference (anhedonia) [4]: prevented; also recorded: Anhedonia was abolished | stability of the isolated product [5]: very unstable and easily degraded | 9CDHRA levels in cells after treatment (metabolism / accumulation) ([6]; 10^−6M, n=3): not converted to 9CDHRA | precursor substrate of 9CDHROL ([6]; in vitro): excellent precursor substrates

Source: patent publication US12029715B2, “Precursor compounds for providing retinoids of the vitamin A5 pathway and uses thereof” (UNIVERSITY OF DEBRECEN, priority 2015, dated 2024)
